Test results reported in article PMC10268634 (ACS Omega, 2023).

Tests used:
DPPH radical scavenging = settings: for IC50: read-out: DPPH (IC50 value in μM)
α-amylase = target: T1, α-amylase (Homo sapiens, UniProt P04746); experiment: biochemical
T1 sequence (P04746 16-511): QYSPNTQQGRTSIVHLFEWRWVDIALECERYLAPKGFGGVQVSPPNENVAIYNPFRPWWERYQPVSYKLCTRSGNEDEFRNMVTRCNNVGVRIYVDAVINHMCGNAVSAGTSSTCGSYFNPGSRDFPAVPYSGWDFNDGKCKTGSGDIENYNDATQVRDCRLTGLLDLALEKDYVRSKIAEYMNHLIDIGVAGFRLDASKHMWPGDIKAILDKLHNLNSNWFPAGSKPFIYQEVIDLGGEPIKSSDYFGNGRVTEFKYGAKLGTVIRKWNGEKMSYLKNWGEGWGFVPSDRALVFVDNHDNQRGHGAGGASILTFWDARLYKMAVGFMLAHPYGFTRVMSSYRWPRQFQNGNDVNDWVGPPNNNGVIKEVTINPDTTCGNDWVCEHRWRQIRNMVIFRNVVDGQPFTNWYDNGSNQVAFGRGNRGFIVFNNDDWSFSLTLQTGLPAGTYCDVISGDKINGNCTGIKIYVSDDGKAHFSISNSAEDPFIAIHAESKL

| Compound | DPPH (IC50 value in μM) (DPPH radical scavenging) | IC50 (DPPH radical scavenging) [µM] | IC50 (α-amylase) [µM] |
| --- | --- | --- | --- |
| CC(=O)N1N=C(c2ccccc2)CC1c1ccccc1O (stereo not drawn) [Compound 1, 1-(5-(2-Hydroxyphenyl)-3-phenyl-4,5-dihydro-1H-pyrazol-1-yl)ethanone] | potential antioxidant activity | 84.2 | 188 |
| CC(=O)N1N=C(c2ccccc2)CC1c1cccc([N+](=O)[O-])c1 (stereo not drawn) [Compound 3, 1-(5-(3-Nitrophenyl)-3-phenyl-4,5-dihydro-1H-pyrazol-1-yl)ethanone] | – | 205 | 604 |
| CC(=O)N1N=C(c2ccccc2)CC1c1ccccn1 (stereo not drawn) [Compound 4, 1-(3-Phenyl-5-(pyridin-2-yl)-4,5-dihydro-1H-pyrazol-1-yl)ethanone] | – | 914 | 663 |
| CC(=O)N1N=C(c2ccc(O)cc2)CC1c1cccc([N+](=O)[O-])c1 (stereo not drawn) [Compound 9, 1-(3-(4-Hydroxyphenyl)-5-(3-nitrophenyl)-4,5-dihydro-1H-pyrazol-1-yl)ethanone] | – | 161 | 632 |
| CC(=O)N1N=C(c2ccc(O)cc2)CC1c1ccc(N(C)C)cc1 (stereo not drawn) [Compound 10, 1-(5-(4-(Dimethylamino)phenyl)-3-(4-hydroxyphenyl)-4,5-dihydropyrazol-1-yl)ethanone] | potential antioxidant activity | 41.1 | 388 |
| CC(=O)N1N=C(c2ccc(O)cc2)CC1c1ccc(C)cc1 (stereo not drawn) [Compound 12, 1-(3-(4-Hydroxyphenyl)-5-(p-tolyl)-4,5-dihydro-1H-pyrazol-1-yl)ethanone] | potential antioxidant activity | 151 | 400 |
| CC(=O)N1N=C(c2ccc(Cl)cc2)CC1c1ccc(C)cc1 (stereo not drawn) [Compound 14, 1-(3-(4-Chlorophenyl)-5-(p-tolyl)-4,5-dihydro-1H-pyrazol-1-yl)ethanone] | – | 179 | – |
| CC(=O)N1N=C(c2ccc(Cl)cc2)CC1c1cccc(O)c1 (stereo not drawn) [Compound 17, 1-(3-(4-Chlorophenyl)-5-(3-hydroxyphenyl)-4,5-dihydropyrazol-1-yl)ethanone] | – | 160 | 315 |
| CC(=O)N1N=C(c2ccc(Cl)cc2)CC1c1ccccc1O (stereo not drawn) [Compound 20, 1-(3-(4-Chlorophenyl)-5-(2-hydroxyphenyl)-4,5-dihydro-1H-pyrazol-1-yl)ethanone] | potential antioxidant activity | 99.6 | 590 |
| CC(=O)N1N=C(c2ccc(Cl)cc2)CC1c1cccc([N+](=O)[O-])c1 (stereo not drawn) [Compound 22, 1-(3-(4-Chlorophenyl)-5-(3-nitrophenyl)-4,5-dihydro-1H-pyrazol-1-yl)ethanone] | – | 220 | 61.5 |

Second part, the compound after the results:

| DPPH (IC50 value in μM) (DPPH radical scavenging) | IC50 (DPPH radical scavenging) [µM] | IC50 (α-amylase) [µM] | Compound |
| --- | --- | --- | --- |
| potential antioxidant activity | 85.1 | 301 | CC(=O)N1N=C(c2ccccc2)CC1c1ccco1 (stereo not drawn) [Compound 2, 1-(5-(Furan-2-yl)-3-phenyl-4,5-dihydro-1H-pyrazol-1-yl)ethanone] |
| potential antioxidant activity | 30 | 35.5 | CC(=O)N1N=C(c2ccccc2)CC1c1ccc(C)cc1 (stereo not drawn) [Compound 5, 1-(3-Phenyl-5-(p-tolyl)-4,5-dihydro-1H-pyrazol-1-yl)ethanone] |
| – | 554 | 811 | COc1ccc(C2=NN(C(C)=O)C(c3ccco3)C2)cc1 (stereo not drawn) [Compound 6, 1-(5-(Furan-2-yl)-3-(4-methoxyphenyl)-4,5-dihydro-1H-pyrazol-1-yl)ethanone] |
| potential antioxidant activity | 69 | 196 | CC(=O)N1N=C(c2ccc(O)cc2)CC1c1ccccn1 (stereo not drawn) [Compound 7, 1-(3-(4-Hydroxyphenyl)-5-(pyridin-2-yl)-4,5-dihydro-1H-pyrazol-1-yl)ethanone] |
| potential antioxidant activity | 106 | 1.07 | CC(=O)N1N=C(c2ccc(O)cc2)CC1c1ccco1 (stereo not drawn) [Compound 8, 1-(5-(Furan-2-yl)-3-(4-hydroxyphenyl)-4,5-dihydro-1H-pyrazol-1-yl)ethanone] |
| potential antioxidant activity | 53.5 | 0.551 | COc1ccc(C2CC(c3ccc(O)cc3)=NN2C(C)=O)cc1 (stereo not drawn) [Compound 11, 1-(3-(4-Hydroxyphenyl)-5-(4-methoxyphenyl)-4,5-dihydro-1H-pyrazol-1-yl)ethanone] |
| potential antioxidant activity | 131 | – | COc1ccc(C2CC(c3ccc(Cl)cc3)=NN2C(C)=O)cc1 (stereo not drawn) [Compound 13, 1-(3-(4-Chlorophenyl)-5-(4-methoxyphenyl)-4,5-dihydro-1H-pyrazol-1-yl)ethanone] |
| – | 383 | 425 | CC(=O)N1N=C(c2ccc(Cl)cc2)CC1c1cccs1 (stereo not drawn) [Compound 15, 1-(3-(4-Chlorophenyl)-5-(thiophen-2-yl)-4,5-dihydro-1H-pyrazol-1-yl)ethanone] |
| – | 56.3 | 62.5 | COc1ccc(C2CC(c3ccc(Cl)cc3)=NN2C(C)=O)cc1O (stereo not drawn) [Compound 16, 1-(3-(4-Chlorophenyl)-5-(3-hydroxy-4-methoxyphenyl)-4,5-dihydropyrazol-1-yl)ethanone] |
| – | 199 | 281 | CC(=O)N1N=C(c2ccc(Cl)cc2)CC1c1ccccn1 (stereo not drawn) [Compound 18, 1-(3-(4-Chlorophenyl)-5-(pyridin-2-yl)-4,5-dihydro-1H-pyrazol-1-yl)ethanone] |
| – | 172 | – | CC(=O)N1N=C(c2ccc(Cl)cc2)CC1c1ccccc1 (stereo not drawn) [Compound 19, 1-(3-(4-Chlorophenyl)-5-phenyl-4,5-dihydro-1H-pyrazol-1-yl)ethanone] |
| – | 580 | 262 | CC(=O)N1N=C(c2ccc(Cl)cc2)CC1c1ccco1 (stereo not drawn) [Compound 21, 1-(3-(4-Chlorophenyl)-5-(furan-2-yl)-4,5-dihydro-1H-pyrazol-1-yl)ethanone] |
